# Experimental data taken from PMC13586308, “Cell type–selective targeting by heterobifunctional protein binders via in-cell enrichment” (Nature Communications, 2026).
# Read-outs that look alike come from different tables or passages of the source.
# What was measured:
# FKBP12 [1] = molecular target: T1, FKBP12 (Homo sapiens, UniProt P62942); test: competitive fluorescence polarization assay, binding to FKBP12; conditions: competitive FP assay
# BRD4^BD1 = molecular target: T2, BRD4^BD1 (Homo sapiens, UniProt O60885); test: competitive fluorescence polarization assay, BRD4 BD1 -/+ presenter protein; format: binding; conditions: for α BRD4^BD1 (binding cooperativity factor): ratio of binding in absence or presence of FKBP12
# T2 construct: to the isolated BD1 and BD2 domains of BRD2, BRD3 and BRD4
# BRD4^BD2 = molecular target: T3, BRD4^BD2 (Homo sapiens, UniProt O60885); test: competitive fluorescence polarization assay, BRD4 BD2 -/+ presenter protein; format: binding; conditions: for α BRD4^BD2 (binding cooperativity factor): ratio of binding in absence or presence of FKBP12
# T3 construct: to the isolated BD1 and BD2 domains of BRD2, BRD3 and BRD4
# BRD4 43-463 = BRD4 43-463 (Homo sapiens, UniProt O60885); test: competitive FP assay, BRD4 tandem bromo domain construct; format: binding
# BRD4 43-463 Y390A [2] = molecular target: BRD4 43-463 Y390A (Homo sapiens, UniProt O60885, Y390A); test: competitive FP assay, BRD4 tandem construct Y390A; format: binding
# BRD4 43-463 Y390A [3] = test: competitive FP assay, BRD4 tandem construct Y390A; format: binding
# BRD4 43-463 Y97A [4] = molecular target: BRD4 43-463 Y97A (Homo sapiens, UniProt O60885, Y97A); test: competitive FP assay, BRD4 tandem construct Y97A; format: binding
# BRD4 43-463 Y97A [5] = test: competitive FP assay, BRD4 tandem construct Y97A; format: binding
# BRD2BD1 = molecular target: T4, BRD2BD1 (Homo sapiens, UniProt P25440); test: competitive FP assay, BRD2 BD1 -/+ FKBP12; format: binding
# T4 construct: to the isolated BD1 and BD2 domains of BRD2, BRD3 and BRD4
# T4 sequence (P25440 74-180 limits assumed): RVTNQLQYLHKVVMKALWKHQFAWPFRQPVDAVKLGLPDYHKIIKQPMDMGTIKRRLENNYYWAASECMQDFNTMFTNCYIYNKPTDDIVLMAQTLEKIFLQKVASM
# BRD2BD2 = BRD2BD2 (Homo sapiens, UniProt P25440); test: competitive FP assay, BRD2 BD2 -/+ FKBP12; format: binding
# BRD2BD2, sequence (P25440 344-453 limits assumed): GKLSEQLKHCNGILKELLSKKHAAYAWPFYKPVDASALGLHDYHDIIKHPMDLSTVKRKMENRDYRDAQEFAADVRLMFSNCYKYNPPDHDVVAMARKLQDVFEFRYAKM
# BRD3BD1 = molecular target: T5, BRD3BD1 (Homo sapiens, UniProt Q15059); test: competitive FP assay, BRD3 BD1 -/+ FKBP12; format: binding
# T5 construct: to the isolated BD1 and BD2 domains of BRD2, BRD3 and BRD4
# T5 sequence (Q15059 34-140 limits assumed): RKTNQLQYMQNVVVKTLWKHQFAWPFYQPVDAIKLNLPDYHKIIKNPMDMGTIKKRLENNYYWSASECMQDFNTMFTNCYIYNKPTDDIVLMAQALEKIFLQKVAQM
# BRD3BD2 = molecular target: T6, BRD3BD2 (Homo sapiens, UniProt Q15059); test: competitive FP assay, BRD3 BD2 -/+ FKBP12; format: binding
# T6 construct: to the isolated BD1 and BD2 domains of BRD2, BRD3 and BRD4
# T6 sequence (Q15059 306-415 limits assumed): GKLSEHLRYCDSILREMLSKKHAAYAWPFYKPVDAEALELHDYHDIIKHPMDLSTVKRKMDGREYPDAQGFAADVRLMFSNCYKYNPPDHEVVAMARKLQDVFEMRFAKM
# [6] = molecular target: T7, His-BRD4^BD1 + eGFP-FKBP12 (Homo sapiens, UniProt O60885+P62942); test: HTRF ternary complex formation BRD4 BD1 + EGFP-FKBP12; format: binding; conditions: eGFP-FKBP12 5 µM, His-BRD4^BD1 100 nM; read-out: HTRF BRD4^BD1 + GFP-FKBP12 Kd
# T7 construct: the His6-tag of the respective BD1 or BD2 domain of BRD4 and EGFP-labeled FKBP12
# [7] = molecular target: T8, His-BRD4^BD2 + eGFP-FKBP12 (Homo sapiens, UniProt O60885+P62942); test: HTRF ternary complex formation BRD4 BD2 + EGFP-FKBP12; format: binding; conditions: eGFP-FKBP12 5 µM, His-BRD4^BD2 100 nM; read-out: HTRF BRD4^BD2 + GFP-FKBP12 Kd
# T8 construct: the His6-tag of the respective BD1 or BD2 domain of BRD4 and EGFP-labeled FKBP12
# FKBP12 [8] = molecular target: T1, FKBP12; test: NanoBRET FKBP12 in intact HEK293 cells; format: cell-based
# BRD4 = molecular target: T9, BRD4 (Homo sapiens, UniProt O60885); test: NanoBRET BRD4, transient BRD4-NanoLuc in HEK293T cells; format: cell-based; conditions: intact HEK293 cells
# T9 construct: full-length BRD4 fused to NanoLuc at N terminus; expressed in transfected cells; host or cells: HEK293T
# In short: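 BRD4 engagement measured in HEK293T cells transiently expressing N-terminal NanoLuc-BRD4 (20 h), with BRD Tracer-02 at its KD concentration. Cells equilibrated with serially diluted inhibitors for 2 h at 37 °C. Donor 450 nm/acceptor 610 nm BRET read; IC50 from normalized 3-parameter fit.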
# INA-6 cells = test: cell viability, INA-6 FKBP12 knockout or NTC; format: cell-based, human; conditions: for IC50: Homo sapiens, INA-6
# MYC mRNA = test: quantitative RT-PCR of MYC mRNA, MV4-11; format: cell-based, human; conditions: Homo sapiens, 6 h; MV4-11, six hours, without FKBP12 PROTAC; read-out: MYC mRNA levels IC50
# [9] = 15 µM FKBP51FK1, read-out: Binding to BRD4BD1 + FKBP51FK1 Kd
# [10] = absence of FKBP12, 2 nM JQ1-FL tracer, read-out: Binding to BRD4^BD1 - FKBP12 Kd
# [11] = absence of FKBP51FK1 (SI Table 3), read-out: Binding to BRD4BD1 - FKBP51FK1 Kd
# [12] = presence of 15 µM FKBP12, read-out: Binding to BRD4^BD1 + FKBP12 Kd (converted)
# [13] = values quoted in rebuttal letter (earlier version of Tab. 1), read-out: binding to BRD4BD1 + FKBP12
# [14] = 15 µM FKBP51FK1, read-out: Binding to BRD4BD2 + FKBP51FK1 Kd
# [15] = absence of FKBP12, 2 nM JQ1-FL tracer, read-out: Binding to BRD4^BD2 - FKBP12 Kd
# [16] = absence of FKBP51FK1 (SI Table 3), read-out: Binding to BRD4BD2 - FKBP51FK1 Kd
# [17] = presence of 15 µM FKBP12, read-out: Binding to BRD4^BD2 + FKBP12 Kd (converted)
# [18] = Binding to BRD4 43-463 + FKBP12 Kd, 15 µM FKBP12
# [19] = Binding to BRD4 43-463 - FKBP12 Kd, absence of FKBP12
# [20] = Binding to BRD4 43-463 Y390A + FKBP12 Kd, 15 µM FKBP12
# [21] = Binding to BRD4 43-463 Y97A + FKBP12 Kd, 15 µM FKBP12
# [22] = Binding to BRD4 43-463 Y97A - FKBP12 Kd, absence of FKBP12
# [23] = 15 µM FKBP12, read-out: Binding to BRD2BD1 + FKBP12 Kd
# [24] = absence of FKBP12, read-out: Binding to BRD2BD1 - FKBP12 Kd
# [25] = 15 µM FKBP12, read-out: Binding to BRD2BD2 + FKBP12 Kd
# [26] = absence of FKBP12, read-out: Binding to BRD2BD2 - FKBP12 Kd
# [27] = 15 µM FKBP12, read-out: Binding to BRD3BD1 + FKBP12 Kd
# [28] = absence of FKBP12, read-out: Binding to BRD3BD1 - FKBP12 Kd
# [29] = 15 µM FKBP12, read-out: Binding to BRD3BD2 + FKBP12 Kd
# [30] = absence of FKBP12, read-out: Binding to BRD3BD2 - FKBP12 Kd
# [31] = FKBP12 knockout cells, read-out: Cell toxicity INA-6 FKBP12 KO IC50
# [32] = nontargeted control (NTC) cells, read-out: Cell toxicity INA-6 NTC IC50
SMILES,Kd (FKBP12 [1]) [nM],Kd (BRD4^BD1; [9]) [nM],Kd (BRD4^BD1; [10]) [nM],Kd (BRD4^BD1; [11]) [nM],Kd (BRD4^BD1; [12]) [nM],α BRD4^BD1 (binding cooperativity factor) (BRD4^BD1),Kd (BRD4^BD2; [14]) [nM],Kd (BRD4^BD2; [15]) [nM],Kd (BRD4^BD2; [16]) [nM],Kd (BRD4^BD2; [17]) [nM],Kd (BRD4 43-463; [18]) [nM],Kd (BRD4 43-463; [19]) [nM],Kd (BRD4 43-463 Y390A [2]; [20]) [nM],Kd (BRD4 43-463 Y390A [2]; absence of FKBP12) [nM],α BRD4 43-463 Y390A (BRD4 43-463 Y390A [3]),Kd (BRD4 43-463 Y97A [4]; [21]) [nM],Kd (BRD4 43-463 Y97A [4]; [22]) [nM],α BRD4 43-463 Y97A (BRD4 43-463 Y97A [5]),α BRD2BD1 (BRD2BD1),Kd (BRD2BD1; [23]) [nM],other results
Cc1sc2c(c1C)C(c1ccc(Cl)cc1)=NC(CC(=O)N1CCC3(CC1)CC(n1cc(C4CN(Cc5ccccn5)C(=O)C5CCCC4N5S(=O)(=O)c4cc(Cl)cc(Cl)c4)nn1)C3)c1nnc(C)n1-2 (stereo not drawn) [a13c],1.7,870 ± 100,4600 ± 800,1500 ± 450,35,131,190 ± 30,2300 ± 400,1600 ± 400,1900,39 ± 3,790 ± 120,15 ± 2,860 ± 140,57,670 ± 90,800 ± 110,1.2,34,100 ± 14,Kd (BRD4^BD1; [13]): 20 nM; α BRD4 43-463 (BRD4 43-463): 20; Kd (BRD2BD1; [24]): 3400 ± 1600 nM; α BRD2BD2 (BRD2BD2): 1.6; Kd (BRD2BD2; [25]): 600 ± 100 nM; Kd (BRD2BD2; [26]): 960 ± 350 nM; α BRD3BD1 (BRD3BD1): 46; Kd (BRD3BD1; [27]): 56 ± 5 nM; Kd (BRD3BD1; [28]): 2600 ± 1000 nM; α BRD3BD2 (BRD3BD2): 0.3; Kd (BRD3BD2; [29]): 3000 ± 350 nM; Kd (BRD3BD2; [30]): 950 ± 100 nM; Kd [6]: 13 ± 2 nM; Kd [7]: 300 ± 30 nM; IC50 (FKBP12 [8]): 76 nM; IC50 (BRD4): 9060 nM; Cell toxicity INA-6 FKBP12 KO IC50 (INA-6 cells; FKBP12 knockout cells): hardly observable; IC50 (INA-6 cells; [31]): > 1600 nM; IC50 (INA-6 cells; [32]): 13 nM; IC50 (MYC mRNA): 2.8 nM
Cc1sc2c(c1C)C(c1ccc(C#CCNC(=O)COCCn3cc(C4CN(Cc5ccccn5)C(=O)C5CCCC4N5S(=O)(=O)c4cc(Cl)cc(Cl)c4)nn3)cc1)=NC(CC(=O)OC(C)(C)C)c1nnc(C)n1-2 (stereo not drawn) [b3c],3.7,50 ± 17,130 ± 20,73 ± 20,8,16,250 ± 70,150 ± 20,120 ± 40,13,14 ± 2,79 ± 5,1.7 ± 0.5,25 ± 4,15,22 ± 3,178 ± 20,8.1,8.2,9 ± 4,α BRD4^BD2 (binding cooperativity factor) (BRD4^BD2): 12; α BRD4 43-463 (BRD4 43-463): 5.6; Kd (BRD2BD1; [24]): 74 ± 20 nM; α BRD2BD2 (BRD2BD2): 38; Kd (BRD2BD2; [25]): 4 ± 2 nM; Kd (BRD2BD2; [26]): 150 ± 50 nM; α BRD3BD1 (BRD3BD1): 2.7; Kd (BRD3BD1; [27]): 13 ± 3 nM; Kd (BRD3BD1; [28]): 35 ± 7 nM; α BRD3BD2 (BRD3BD2): 3.8; Kd (BRD3BD2; [29]): 26 ± 6 nM; Kd (BRD3BD2; [30]): 100 ± 30 nM; Kd [6]: 1 ± 0.6 nM; Kd [7]: 8 ± 3 nM; IC50 (FKBP12 [8]): 29 nM; IC50 (BRD4): 194 nM; IC50 (INA-6 cells; [31]): 90 nM; IC50 (INA-6 cells; [32]): 1.8 nM; concentration inducing reduced cell viability in FKBP12-negative cells (INA-6 cells; INA-6 FKBP12 knockout): ≥ 100 nM; IC50 (MYC mRNA): 2 nM
Cc1sc2c(c1C)C(c1ccc(Cl)cc1)=NC(CC(=O)NCCOCCn1cc(COCC3CN(C(C)c4ccccn4)C(=O)C4CCCC3N4S(=O)(=O)c3cc(Cl)cc(Cl)c3)nn1)c1nnc(C)n1-2 (stereo not drawn) [a1dj],0.4,680 ± 100,470 ± 60,250 ± 80,39,12,1000 ± 500,400 ± 90,150 ± 50,90,31 ± 2,266 ± 16,9 ± 1,106 ± 7,12,84 ± 10,100 ± 17,1.2,16,38 ± 6,Kd (BRD4^BD1; [13]): 32 nM; α BRD4^BD2 (binding cooperativity factor) (BRD4^BD2): 4.4; Kd (BRD2BD1; [24]): 610 ± 90 nM; α BRD2BD2 (BRD2BD2): 2.9; Kd (BRD2BD2; [25]): 48 ± 17 nM; Kd (BRD2BD2; [26]): 140 ± 65 nM; Kd (BRD3BD1; [27]): 25 ± 3 nM; Kd (BRD3BD1; [28]): 290 ± 35 nM; α BRD3BD2 (BRD3BD2): 1.1; Kd (BRD3BD2; [29]): 150 ± 30 nM; Kd (BRD3BD2; [30]): 170 ± 50 nM; Kd [6]: 15 ± 3 nM; Kd [7]: 30 ± 7 nM; IC50 (FKBP12 [8]): 2.6 nM; IC50 (BRD4): 653 nM; Cell toxicity INA-6 FKBP12 KO IC50 (INA-6 cells; FKBP12 knockout cells): hardly observable; IC50 (INA-6 cells; [31]): 480 nM; IC50 (INA-6 cells; [32]): 0.4 nM; Cell toxicity INA-6 NTC IC50 (INA-6 cells; nontargeted control (NTC) cells): sub-nanomolar; IC50 (MYC mRNA): 5 nM
